# Measurements: patent publication US8003312B2, “Multiplex cellular assays using detectable cell barcodes” (The Board of Trustees of the Leland Stanford Junior …, priority 2007, dated 2011)
# Key:
# Format in all cases: cell-based, human
# ERK phosphorylation = experiment: 96-well FCB drug screen in Jurkat cells: T-cell receptor-mediated ERK phosphorylation; details: 20 μM, 45 min before stimulation with anti-CD3, anti-CD28 and IFN-γ for 5 min
# Experimental: (§1) FIG. 5. Use of FCB in drug screening platforms. […] (a) Layout of screening experiment. Jurkat cells were treated with 70 known small-molecule kinase or phosphatase inhibitors (20 μM), Jak inhibitor I (2 μM) or U0126 (20 μM) for 45 min before stimulation with 5 μg/ml anti-CD3 and anti-CD28 and 10 ng/ml IFN-γ for 5 min. (b) FCB setup for barcoding of 96-well plate. After fixation, cells were barcoded with Alexa 700-NHS (0, 0.06, 0.25 or 1 μg/ml) to delineate the four quadrants of the 96-well plate. Each quadrant was subdivided into four rows labeled with Pacific Blue-NHS (0, 0.04, 0.2 or 1 μg/ml) and six columns labeled with Alexa 488-NHS (0, 0.02, 0.06, 0.18, 0.5 or 1.5 μg/ml). Shown are pseudocolor FACS plots of the actual gating scheme used to deconvolute the samples in quadrant 4, row D (bottom right six samples in the plate). […] Wells with black triangles were excluded from the analysis due to high fluorescence of the drug in the phospho-protein fluorescence channels. Colored squares are drawn over wells analyzed in d. […]
# (§2) Because most cell-based high-throughput screens use 96-well microtiter plates, we next addressed the question whether the technique could be adapted to a 96-well plate. […] We also calculated the Z′ factor from these samples, and it was 0.71 for Stat1 and 0.69 for ERK, indicating robust assay performance. […]
# [1] = tested on: Stat1 and ERK phosphorylation; experiment: Titration of four screening hits in Jurkat cells using six-sample FCB (pStat1, pERK); details: 30 min before IFN-γ (10 ng/ml) and anti-CD3/28 (5 μg/ml each)
# Experimental: FIG. 8. Detailed titration of four hits from Jurkat drug screening experiment (FIG. 5). a) Four compounds: Bay11-7082, Indirubin-3-monoxime, PP2, and ZM449829 were added to Jurkat cells at different concentrations for 30 min prior to stimulation with IFN-γ (10 ng/ml) and anti-CD3/28 (5 μg/ml each). The cells were fixed and permeabilized, then stained with pStat1 Ax647 and pERK Ax488 antibodies. Percent inhibition of phosphorylation was plotted against concentration of drugs and fitted with a logistic regression curve to obtain IC50 values. Numbers in the top right of each plot are the IC50 value in μM units. b) Lysates were prepared from the same cells used for phospho flow and analyzed by western blot with pStat1 and pERK antibodies. Drugs were applied at 20 μM (same concentration as initial screen) for western blot analysis.
# Because a few of these hits were unexpected, we performed titration experiments using six-sample FCB on four of the compounds to validate the results (FIG. 8).
# We calculated fold change of phosphorylation upon stimulation by dividing median fluorescence intensity (MFI) of stimulated samples by the MFI of unstimulated samples: FC=MFIstim/MFIunstim. For heat map analysis, FC was converted to log2 values to enhance visualization and so that samples showing no change have a value of zero. To measure drug activity, we calculated percent inhibition as follows: Percent Inhibition=1−((MFItreated ? MFIunstim)/(MFIstim ? MFIunstim)), where “treated” denotes drug treated (and stimulated) samples, “stim” denotes control stimulated (non drug treated) samples, and “unstim” denotes control unstimulated (non drug treated) samples. We calculated Z′-factor from control stimulated and unstimulated samples by the following: Z′-factor=1 ? ((3[…]SDstim 3[…]SDunstim)/(meanstim ? meanunstim)), where “SD” denotes standard deviation of the mean, and “mean” denotes the mean of either stimulated or unstimulated MFI values. Z′-factor is an indication of the robustness and suitability of an assay for high throughput screening, with values from 0.5 to 1 indicating an excellent assay, 0 to 0.5 indicating a usable assay, and less than 0 indicating the assay has too much noise or inadequate dynamic range.
# Stat1 phosphorylation = experiment: 96-well FCB drug screen in Jurkat cells: Stat1 phosphorylation induced by IFN-γ; details: 20 μM, 45 min before stimulation with anti-CD3, anti-CD28 and IFN-γ for 5 min
# Experimental: as §1, §2
structure (smiles),measurement,setting,value
Cc1ccc(S(=O)(=O)/C=C/C#N)cc1 [Bay11-7082],inhibition of ERK phosphorylation,ERK phosphorylation,50%
same,selectivity between ERK and Stat1 phosphorylation,[1],little selectivity
same,inhibition of Stat1 phosphorylation,Stat1 phosphorylation,inhibited Stat1 phosphorylation potently
